Converted amounts (≈) assume the structure as drawn.

For one data set, the system named is Caco-2 cells. The data set can be described thus: Permeability and transporter substrate test in Caco-2 cells (ABBA). The class given is in vitro ADME. Conditions: Caco-2. The procedure:
(§1) Apparent permeability coefficient (Papp, cm/s) and efflux ratio were calculated using Microsoft Excel.

Test in data set [1]: as above
The data set is classed as in vitro ADME. Conditions: human, pH 7.4; for Papp A→B at 2 h, 5 µM: Caco-2, A to B, read-out: Average Papp PappA-B; for Papp B→A at 2 h, 5 µM: Caco-2, B to A, read-out: Average Papp PappB-A; for efflux ratio at 2 h, 5 µM: Caco-2, Papp(B-A)/Papp(A-B), read-out: Efflux Rate (ERa). The procedure:
as §1
Background: Caco-2 monolayers are a common model of the intestinal barrier.

The nature of another data set: in vivo. The following applies: mouse, in vivo, iv, 2 mg/kg.
Data set [2] can be described thus: Pharmacokinetic study in mice (IV and PO, plasma LC-MS/MS). Conditions: PO 5 mg/kg vs IV 2 mg/kg.
Procedure: (§4) The objective of this study is to investigate the pharmacokinetic properties of the disclosed compounds after tail vein intravenous injection (IV) and oral administration (PO) in female CD1 mice. Plasma was sampleed at 0, 0.083, 0.25, 0.5, 1, 2, 4, 7 and 24 hours post-dosing, and the drug concentrations in plasma at different time points were detected by LC-MS/MS, and the relevant pharmacokinetic parameters were calculated using WinNonlin software.
(§5) Experimental female CD1 mice were purchased from SPF Laboratory Animal Technology Co., Ltd., aged 6-8 weeks with body weights of 20-30 g. The female CD1 mice were housed in a controlled environment (set temperature at 20-25°C and relative humidity at 40-70%). A 12-hour light/12-hour dark cycle was maintained unless interrupted by study-related events.
(§6) Compound solutions are prepared in an ultra-clean workbench and prepared immediately before use, and mixed thoroughly prior to use to ensure formulation homogeneity.
(§7) Vehicle composition: 10% DMSO+90% (20%SBE-β-CD) Table 4. Doses Used in IV Administration
(§8) Vehicle composition: 10% DMSO + 90% (20%SBE-β-CD) Table 5. Doses Used in PO Administration
(§9) Vehicle composition: 0.5% MC + 1% Tween-20 Table 6. Doses Used in PO Administration
(§10) Prior to the experiment, the animals were randomly grouped. The mice were fasted for 12 hours before drug administration, and free feeding was resumed 4 hours after administration.
(§11) All blood samples were transferred into plastic microcentrifuge tubes containing anticoagulant (EDTA-K2), and then centrifuged at 4000 g for 5 minutes at 4°C. The supernatant was transferred into a microcentrifuge tube without anticoagulant, and the plasma was stored in a -75±15°C refrigerator until detection.
(§12) The blood samples were purified by HPLC and analyzed by mass spectrometry to obtain the plasma concentration-time curve of the disclosed compound.
(§13) The pharmacokinetic parameters were estimated by non-compartmental model method (calculated by Phoenix WinNonlin software).
The test system of data set [3] is pancreatic cancer cell line (PSN1). The data set can be described thus: Proliferation inhibitory activity on cell line PSN1 (CellTiter-Glo, 72 hours). The following applies: for IC50: Homo sapiens, PSN1 cell proliferation; for Max Inhibition Percentage: PSN1 cells. The data set is classed as cell-based. On the procedure:
• a) Adherent cells need to be digested and centrifuged, while suspension cells can be directly centrifuged; • b) Resuspend with complete culture medium and count using an automatic cell counter; • c) Plate 6,000 cells per well for PSN1, and dilute the cell suspension to the required density; • d) Add 100 µL of cells per well, and culture overnight at 37°C in a 5% CO2 incubator to stabilize and balance the cells.
• a) Prepare the compound with DMSO as a solution of 200-fold final concentration; • b) Dilute the 200-fold compound to a 3-fold final concentration with complete culture medium; • c) Add 50 µL of the compound per well, use wells with the same volume of culture medium as controls, and continue culturing in a 37°C, 5% CO2 incubator for 72 hours.
• a) Equilibrate the cell plate and CTG reagent to room temperature; • b) Add 30 µL of CellTiter-Glo® reagent per well; • c) Incubate at room temperature for 15 minutes; • d) Detect with a microplate reader.
• 1) Calculate IC50 using GraphPad Prism 8; • 2) %Inh = (1-(Raw data - Meanmin) / (Meanmax - Meanmin))×100; • 3) Meanmax is the positive control well with only cells and the same volume of culture medium; • 4) Meanmin is the negative control well with only culture medium; • 5) Raw data refers to the signal values of wells with added compounds. For two replicate wells, they are denoted as Raw1 and Raw2.

A short description of data set [4]: Metabolic stability in liver microsomes (mouse). The following applies: for Residual Amount (%) 15 min / Residual Amount (%) 30 min / Residual Amount (%) 45 min / Residual Amount (%) 60 min: Mouse, first line of pair. The data set is classed as in vitro ADME. On the procedure: (§2) For negative samples, add 80µL of PBS (100mM, pH = 7.4) solution. Vortex at 800 rpm for 10 seconds, then pre-incubate in a 37°C water bath for 10 minutes. • 4) After pre-incubation, add 2 µL of control drug or test compound to each well to initiate the reaction. The reaction is carried out in a 37°C water bath at 60 rpm. • 5) At 0.5, 15, 30, 45, and 60 minutes, take 50 µL of the reaction system from each well and add it to 200 µL of cold methanol solution containing the internal standard to terminate the reaction. • 6) Mix thoroughly and centrifuge at 4000 rpm at 4°C for 30 minutes. • 7) Take 100µL of supernatant and mix with 100µL ultrapure water for liquid-mass analysis. *Internal standards: 50nM alprazolam, 50nM labetalol and 100nM ketoprofen
(§3) The internal standard method is adopted, and the ratio of the sample peak area to the internal standard peak area is used to calculate the residual percentage (taking the ratio of the sample peak area to the internal standard peak area at 0.5 minutes as 100%).
In general terms: Liver microsomes are vesicles of endoplasmic reticulum, rich in cytochrome P450 enzymes.

Data set [5] is described as follows: Metabolic stability in liver microsomes (human). The class given is in vitro ADME. The following applies: for Residual Amount (%) 15 min / Residual Amount (%) 30 min / Residual Amount (%) 45 min / Residual Amount (%) 60 min: Human, first line of pair. The procedure: as §2, §3
A short description of data set [6]: Thermodynamic solubility test. Conditions: phosphate buffer, aqueous buffer, thermodynamic from solid, pH 7.4, 25°C. The class given is physicochemical. The procedure: Weigh 7.098 g Na2HPO4 (Solution A) and dissolve in 500 mL ultrapure water via sonication; weigh 3.40 g KH2PO4 (Solution B) and dissolve in 250 mL ultrapure water via sonication. Slowly add Solution B dropwise to Solution A and adjust the pH to 7.40 ± 0.05.
Shake at 1100 rpm, 25°C for 5 minutes; • i) Add 10 µL of the 1 mg/mL DMSO sample and 10 µL of buffer to 980 µL of methanol, then dilute 10-fold with methanol:water (1:1) as the standard sample for LC-MS/MS analysis.
Solubility was calculated using Excel. Solubility(μM) = (Areafiltered × DFfiltered)/(Areastd × DFstd) × [std] × DFstd [formula]

Procedure for in vivo: as §4, §5, §6, §7, §8, §9, §10, §11, §12, §13

Regarding `CC(C)NCC(O)COc1cccc2ccccc12` (centres unmarked) [Propranolol], in the data set on Caco-2 cells, the “Classification Efflux Transporter Substrate” value is reported as “Unlikely or Not (ERa<2)”. For the same molecule, in data set [1], the Papp A→B at 2 h, 5 µM was 22.3 ×10⁻⁶ cm/s; the Papp B→A at 2 h, 5 µM was 14.7 ×10⁻⁶ cm/s; the efflux ratio at 2 h, 5 µM is 0.66.
As to `COc1cc2nc(N3CCN(C(=O)c4ccco4)CC3)nc(N)c2cc1OC` [Prazosin], in data set [1], the Papp A→B at 2 h, 5 µM amounted to 8.97 ×10⁻⁶ cm/s and the Papp B→A at 2 h, 5 µM is 29.6 ×10⁻⁶ cm/s.
For `C[C@H]1O[C@@H](O[C@H]2[C@@H](O)C[C@H](O[C@H]3[C@@H](O)C[C@H](O[C@H]4CC[C@@]5(C)[C@H](CC[C@@H]6[C@@H]5C[C@@H](O)[C@]5(C)[C@@H](C7=CC(=O)OC7)CC[C@]65O)C4)O[C@@H]3C)O[C@@H]2C)C[C@H](O)[C@@H]1O` [Digoxin], the “Classification Efflux Transporter Substrate” value with Caco-2 cells is “Probable (ERa ≧ 2)”. In addition, in data set [1], the Papp A→B at 2 h, 5 µM was found to be 0.94 ×10⁻⁶ cm/s; the Papp B→A at 2 h, 5 µM stood at 26.1 ×10⁻⁶ cm/s; the efflux ratio at 2 h, 5 µM stood at 27.8.
One may read the AUC(0-t) as exposure summed from dosing to a finite time, without extrapolation to infinity. Read a high AUC(0-t) as high exposure. One may read the Vd as the apparent volume that relates the amount in the body to the concentration in plasma or blood. Read a high Vd as extensive tissue distribution. Usually clearance stands for a measure of how efficiently the substance is removed, as volume per time. Lower therefore signals a low capacity for elimination. In general, half-life refers to the time in which the quantity being followed falls by half. Low readings indicate rapid decline, high ones slow decline. One may read the IC50 as the concentration that gives 50% inhibition. For `NC(=O)c1nn(CCO)c2c1CCc1cnc(Nc3cc(N4CCN5CCC[C@H]5C4)ccc3OC(F)(F)F)nc1-2` [CPD03], in “in vivo”, the AUC(0-t) was determined as 433 ng·h/mL, the Vd stood at 4.29 L/kg, the clearance is 79.1 mL/min/kg and the half-life was 226 min. In data set [2], the F is given as 16.2%. Also, the IC50 in data set [3] came out at 256 nM. Also, in data set [3] (first column of this head), the “Max Inhibition Percentage” value worked out at 73.6. Moreover, the “Max Inhibition Percentage” value in data set [3] (second column of this head) was -3.1.
As a reminder, the microsomal CLint is the capacity of the preparation to metabolise the compound, expressed as a volume cleared per time. In the case of `O=C(O)Cc1ccccc1Nc1c(Cl)cccc1Cl` [Diclofenac, reference compound], in data set [4], the “Residual Amount (%) 15 min” value was found to be 61.24%, the “Residual Amount (%) 30 min” value was 56.66%, the “Residual Amount (%) 45 min” value is 51.87% and the “Residual Amount (%) 60 min” value was found to be 45.26%. For the same molecule, in data set [4] (male, CD-1, pH 7.4, Mouse liver microsomes), the microsomal CLint was 67.6 µL/min/mg. Also, in data set [5], the “Residual Amount (%) 15 min” value is 10.78%, the “Residual Amount (%) 30 min” value turned out to be 5.62%, the “Residual Amount (%) 45 min” value is 3.65% and the “Residual Amount (%) 60 min” value is recorded as 2.93%. This molecule came in with an intrinsic clearance (microsomal CLint) at 2 µM in data set [5] (pH 7.4, Human liver microsomes) of 194 µL/min/mg.
Usually solubility stands for the dissolved amount per volume that the medium holds. In “in vivo”, `NC(=O)c1nn(CCO)c2c1CCc1cnc(Nc3cc(N4CCN5CCC[C@@H]5C4)ccc3OC(F)(F)F)nc1-2` [CPD02] had an AUC(0-t) of 404 ng·h/mL, a Vd of 3.05 L/kg, a clearance of 81.7 mL/min/kg and a half-life of 81.6 min. Further, in data set [4] (Mouse liver microsomes), the half-life is 31.5 min and the microsomal CLint was 44 µL/min/mg. For the same molecule, in data set [4], the “Residual Amount (%) 15 min” value was 56.76%, the “Residual Amount (%) 30 min” value is given as 39.33%, the “Residual Amount (%) 45 min” value is listed as 30.29% and the “Residual Amount (%) 60 min” value amounted to 26.56%. The “Classification Efflux Transporter Substrate” value with Caco-2 cells is reported as “Probable (ERa ≧ 2)”. In data set [1], the Papp A→B at 2 h, 5 µM came out at 7.83 ×10⁻⁶ cm/s; the Papp B→A at 2 h, 5 µM worked out at 23.8 ×10⁻⁶ cm/s; the efflux ratio at 2 h, 5 µM worked out at 3.04. In data set [5] (Human liver microsomes), the half-life is 21.4 min and the microsomal CLint stood at 64.8 µL/min/mg. In data set [5], the “Residual Amount (%) 15 min” value is given as 54.16%, the “Residual Amount (%) 30 min” value is 32.53%, the “Residual Amount (%) 45 min” value stood at 22.97% and the “Residual Amount (%) 60 min” value is 13.71%. This molecule registered a solubility at 24 h in data set [6] of 2.1 µg/mL (≈ 3.76 µM). In data set [2], this molecule yielded an F of 38.0%. In data set [3], this molecule came in with a concentration for half-maximal inhibition (IC50) of 67.6 nM. The “Max Inhibition Percentage” value in data set [3] (first column of this head) turned out to be 80.8. Besides, the “Max Inhibition Percentage” value in data set [3] (second column of this head) was 6.7.

For the origin of these results see patent EP4653443A1, “STEREOISOMER AND DEUTERATED DERIVATIVE OF PYRAZOLOQUINAZOLINE COMPOUND AND USE” (Phil Rivers Technology Co., Ltd, priority 2023, dated 2024).
